Experiments:
Format in all cases: functional, cell-based
HCT-15 = experiment: In vitro cytotoxic activity against human colon cancer cell line HCT15 after 72 hr of drug exposure determined by the SRB assay; details: HCT-15, 72 h
SK-OV-3 = experiment: In vitro cytotoxic activity against human ovarian carcinoma cell line SK-OV-3 after 72 hr of drug exposure determined by the SRB assay; details: SK-OV-3, 72 h
T47D = experiment: In vitro cytotoxic activity against human breast cancer cell line T-47D after 72 hr of drug exposure determined by the SRB assay
MDA-MB-468 = experiment: In vitro cytotoxic activity against human breast cancer cell line MD-MB-468 after 72 hr of drug exposure determined by the SRB assay; details: MDA-MB-468, 72 h

SMILES	IC50 (HCT-15) [nM]	IC50 (SK-OV-3) [nM]	IC50 (T47D) [nM]	IC50 (MDA-MB-468) [nM]
Cc1ccc2c(c1)C(=O)c1nccnc1C2=O	120	2200	1200	1500
O=C1c2ccc(CBr)cc2C(=O)c2nccnc21	400	1600	500	300
CN(C)Cc1ccc2c(c1)C(=O)c1nccnc1C2=O	100	220	100	100
O=C1c2ccc(CN3CCCC3)cc2C(=O)c2nccnc21	100	250	100	100
O=C1c2ccc(CN3CCOCC3)cc2C(=O)c2nccnc21	1300	7000	1300	3200
O=C1c2ccc(CN3CCCCC3)cc2C(=O)c2nccnc21	50	400	80	200
CN1CCN(Cc2ccc3c(c2)C(=O)c2nccnc2C3=O)CC1	1200	10000	3000	3000
O=C1c2ccc(CN(CCO)CCO)cc2C(=O)c2nccnc21	180	1200	900	900
COc1cccc2c1C(=O)c1c(O)c3c(c(O)c1C2=O)C[C@@](O)(C(=O)CO)C[C@@H]3O[C@H]1C[C@H](N)[C@H](O)[C@H](C)O1 [DOXORUBICIN]	25		7	7
CO[C@@]12[C@H](COC(N)=O)C3=C(C(=O)C(C)=C(N)C3=O)N1C[C@@H]1N[C@@H]12 [MITOMYCIN]	70	180	400	270
